For 13 molecules, EC50, ΔSHG and half-life results are on record in patent US20220267269A1, “COMPOUNDS FOR THE MODULATION OF PROPROTEIN CONVERTASE SUBTILISIN/KEXIN TYPE 9 (PCSK9)” (SRX Cardio, LLC, priority 2019, published 2022).

Series [1] addresses T1, PCSK9 (Homo sapiens, UniProt Q8NBP7).
T1 construct: purchased Cayman Chemical 20631
Nature of the series: LDLR flow cytometric analysis (LDLR recovery in cells treated with recombinant PCSK9). The class given is cell-based. As to the method: LDLR levels were measured using flow cytometry or fluorescence activated cell sorting (FACS) using protocols adapted from Benjannet et al., “Effects of the prosegment and pH on the activity of PCSK9: evidence for additional processing events” J Biol Chem. 285(52): 40965-40978 (2010) and “Composition and Methods of Use of Small Molecules as Binding Ligands for the Modulation of Proprotein Convertase Subtilisin/Kexin Type 9 (PCSK9) Protein Activity” (WO2016029037), which are incorporated by reference in their entirety.
Cells, such as HepG2, HuH7, FL83B, or a cell line transfected with a short-hairpin PCSK9 knockdown sequence such as HepG2/shPCSK9, HuH7/shPCSK9, or FL83B/shPCSK9 were cultured in media composed of complete, high glucose DMEM (Invitrogen) with 10% fetal bovine serum (Life Technologies), supplemented with penicillin-streptomycin (Life Technologies). Cells were plated in a 24-well plate, at 125 k cells/well, and cultured at 37° C. for 12-24 h. Culture media was removed and replaced with fresh culture media or culture media plus a predetermined amount of recombinant PCSK9 (for example, a final PCSK9 concentration of 5 μg/mL; Cayman Chemical, Ann Arbor, Mich., Catalog #20631). Wells evaluating test compounds were dosed with concentrations ranging from 0 nM to 100 μM.
Following an incubation period of 4-6 hours at 37° C., the media was removed and the cells rinsed by adding 0.5 ml of complete D-PBS (i.e., Dulbecco's phosphate buffered saline (D-PBS, Life Technologies) supplemented with 0.5% bovine serum albumin (BSA, Sigma) and 1 g/L glucose (Sigma)). The wash media was carefully aspirated, and cells released from the plate using 200 μL of TrypLE Express (Life Technologies) by incubating for 5-10 minutes at 37° C. The TrypLE-Cell suspension was inactivated by adding 100 μL of Fetal Bovine Serum, transferred to a v-bottom plate, and centrifuged at 250×gravity for 5 minutes. Following centrifugation, the supernatant was aspirated and the cell pellet is resuspended in 100 μL of complete D-PBS, and centrifuged at 250×gravity for 5 minutes. Following centrifugation, the supernatant was aspirated and the cell pellet was resuspended in 100 μL of antibody staining solution (600 μL of anti-LDLr-PE in complete D-PBS) and incubated on ice, protected from light, for 30 minutes. The cells were then pelleted by centrifugation, resuspended in 100 μL of 4′,6-Diamidino-2-phenylindole (DAPI, Cayman Chemical) or 7-aminoactinomycin D (7AAD, Life Technologies) staining solution to measure cell viability.
Cells were analyzed for both cell viability marker (dead cells) and LDLR in live cells using a flow cytometer per the manufacturer's operating manual. Cells incubated with small molecule compounds that are inhibitors of PCSK9 will be expected to show increased amounts of LDLR, relative to control (no compound) specimens, and cells incubated with small molecule compounds that are activators of PCSK9 will be expected to show decreased amounts of LDLR relative to control (no compound) specimens.
The percentage recovery in the LDLR assay at 10 μM concentration is provided as follows: +++: >80% recovery; ++: 40-80% recovery; +: 0-40% recovery.
The LDL-R EC50 is provided as follows: +++: <1; ++: 1 μM-5 μM; +: >5 μM.
(Flow cytometry measures light scatter and fluorescence of single cells or particles in a stream.)

The target of series [2] is T1, PCSK9. Nature of the series: Fluorescent-LDL uptake analysis by flow cytometric analysis. The series is classed as cell-based. How it is done:
Cells, such as HuH7, FL83B, or a cell line transfected with a short-hairpin PCSK9 knockdown sequence such as HuH7/shPCSK9 or FL83B/shPCSK9 were plated and cultured at 37° C. for 12-24 h. Culture media was removed and replaced with fresh lipoprotein-depleted culture media supplemented with 5 μg/mL of fluorescently labeled LDL or lipoprotein-depleted culture media supplemented with 5 μg/mL of fluorescently labeled LDL plus a concentration of recombinant PCSK9 (for example 5 μg/mL recombinant PCSK9; Cayman Chemical, Cat. #20631). Examples of fluorescently labeled LDL include: DiI-LDL (Kalen Biomedical), or LDL conjugated to Dylight (e.g., LDL-Dylight 488, or LDL-Dylight 550 (Cayman Chemical, Cat. #10011229)). Lipoprotein-depleted culture media was composed of DMEM (Invitrogen) with 10% lipoprotein-depleted fetal bovine serum (Kalen Biomedical) and supplemented with penicillin-streptomycin (Life Technologies). Cells were dosed with small molecule test compounds at doses ranging from 0 nM to 100 μM, following a protocol adapted from Benjannet et al., “Effects of the prosegment and pH on the activity of PCSK9: evidence for additional processing events” J Biol Chem. 285(52):40965-40978 (2010), which is incorporated by reference in its entirety.
Following an incubation period of specified length, such as 16 hours, the lipoprotein-depleted media was removed and cells rinsed three times with a rinse solution (Dulbecco's phosphate buffered saline (D-PBS, Life Technologies), supplemented with 0.5% bovine serum albumin (BSA, Sigma) and 1 g/L glucose (Sigma)). The fluid was then removed, and cells are released from the plate using TrypLE Express (Life Technologies) per manufacturer's recommended procedures, such as incubation for 5-10 minutes at 37° C. The TyrpLE-Cell suspension was then transferred to 15 mL conical tubes, volume was increased to 2 mL with D-PBS supplemented with 0.5% BSA, and […], and the tubes were centrifuged at 250×gravity for 10 minutes. Following centrifugation, the supernatant was aspirated and the cell pellet was resuspended in 300 μL PBS and counterstained with 4′,6-diamidino-2-phenylindole (DAPI, Cayman Chemical) as a cell viability marker, other cell viability markers such as 7-aminoactinomycin D (7AAD, Life Technologies) have also been described in the art.
Cells were analyzed by for both 7AAD (dead cells) and fluorescent LDL in live cells using a flow cytometer per the manufacturer's operating manual. Cells incubated with small molecule compounds that are inhibitors of PCSK9 will be expected to show increased amounts of LDL fluorescence, relative to control (no compound) specimens, and cells incubated with small molecule compounds that are activators of PCSK9 will be expected to show decreased amounts of LDL fluorescence relative to control (no compound) specimens.
The LDL-uptake EC50 is provided as follows: +++: <0.5 μM; ++: 0.5-1μM; +: >1 μM.

The target in series [3] is T1, PCSK9. Nature of the series: Biodesy direct binding measurement (second harmonic generation). Conditions: Biodesy Delta System. From the text: Direct binding can be measured using the commercially available Biodesy Delta System (BDS, http://www.biodesy.com/products/; accessed Aug. 1, 2018). The BDS is a laser-based approach that utilizes second harmonic generation from a labeled protein to detect ligand binding, the method of which is covered and described by U.S. Pat. Nos. 9,395,358 and 8,932,822, and has been commercialized by Biodesy Inc. (South San Francisco, Calif.).

Series [4] can be described thus: Microsomal stability analysis, mouse. The class given is in vitro ADME. Conditions: pH 7.4; mouse liver microsomes, 1 μM test compound; read-out: Microsomal Stability t1/2. How it is done:
(§1) Microsomal stability was determined as follows:
(§2) The assay was carried out in 96-well microtiter plates at 37° C. Reaction mixtures (25 μL) contained a final concentration of 1 μM test compound, 0.5 mg/mL liver microsomes protein, and 1 mM NADPH and/or 1 mM UDPGA (with alamethicin) in 100 mM potassium phosphate, pH 7.4 buffer with 3 mM MgCl2. At each of the time points (for example, 0, 15, 30, and 60 minutes), 150 μL of quench solution (100% acetonitrile with 0.1% formic acid) with internal standard was transferred to each well. Besides the zero minute controls, mixtures containing the same components except the NADPH can also be prepared as the negative control. Verapamil was included as a positive control to verify assay performance. Plates were sealed, vortexed, and centrifuged at 4° C. for 15 minutes at 4000 rpm. The supernatant was transferred to fresh plates for LC/MS/MS analysis. The extent of metabolism was calculated as the disappearance of the test compound, compared to the 0-min time incubation. Initial rates were calculated for the compound concentration and used to determine t½ values.

The nature of series [5]: Microsomal stability analysis, rat. Conditions: pH 7.4; rat liver microsomes, 1 μM test compound; read-out: Microsomal Stability t1/2. The series is classed as in vitro ADME. How it is done:
as §1, §2

Series [6] can be described thus: Microsomal stability analysis, human. The series is classed as in vitro ADME. The note with it: pH 7.4; human liver microsomes, 1 μM test compound; read-out: Microsomal Stability t1/2. How it is done:
as §1, §2

Molecules are shown by their SMILES. A value given as a limit tells only on which side of the number the result lay.

T1 sequence (Q8NBP7 153-692): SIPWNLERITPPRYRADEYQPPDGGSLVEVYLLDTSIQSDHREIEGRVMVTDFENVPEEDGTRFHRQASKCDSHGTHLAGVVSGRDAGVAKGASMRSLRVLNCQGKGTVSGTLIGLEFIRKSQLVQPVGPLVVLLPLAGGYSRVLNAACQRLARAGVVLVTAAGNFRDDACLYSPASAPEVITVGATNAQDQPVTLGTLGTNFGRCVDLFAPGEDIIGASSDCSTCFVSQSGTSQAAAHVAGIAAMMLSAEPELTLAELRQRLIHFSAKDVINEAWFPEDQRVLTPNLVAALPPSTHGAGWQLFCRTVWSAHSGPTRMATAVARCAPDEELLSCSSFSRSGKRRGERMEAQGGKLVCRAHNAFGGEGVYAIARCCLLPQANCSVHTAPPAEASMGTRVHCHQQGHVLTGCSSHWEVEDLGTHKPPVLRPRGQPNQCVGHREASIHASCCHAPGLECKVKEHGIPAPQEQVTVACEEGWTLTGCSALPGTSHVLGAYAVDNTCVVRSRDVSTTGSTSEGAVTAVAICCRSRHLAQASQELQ

Regarding `c1ccc(-c2ccc(C3CCCN(C4CCCC4)C3)cc2)cc1` (stereo not shown) [1,003, 3-([1,1′-biphenyl]-4-yl)-1-cyclopentylpiperidine], the EC50 (usually the concentration at which the effect is half-maximal) at PCSK9 [1] lay within 1 to 5 µM.
As for `c1cc(-c2ccc(C3CCCN(CC4CCCC4)C3)cc2)ccn1` (stereo not shown) [1,005, 4-(4-(1-(cyclopentylmethyl)piperidin-3-yl)phenyl) pyridine], the concentration for a half-maximal effect (EC50) on PCSK9 [1] was in the range of 1 to 5 µM.
`FC(F)(F)c1cccc(-c2ccc(C3CCCN(CC4CCCC4)C3)cc2)c1` (stereo not shown) [1,013, 1-(cyclopentylmethyl)-3-(3′-(trifluoromethyl)-[1,1′-biphenyl]-4-yl)piperidine]: the half-maximal effective concentration (EC50) on PCSK9 [2] is > 1000 nM.
Same read-out and setting: with `FC(F)(F)c1cc(C2CCCN(CC3CCOC3)C2)ccc1-c1ccccc1` (stereo not shown) [1,027, 1-((tetrahydrofuran-3-yl)methyl)-3-(2-(trifluoromethyl)-[1,1′-biphenyl]-4-yl)piperidine] the figure was > 1000 nM; with `Fc1cc(F)cc(-c2ccc(C3CCCN(CC4CCCC4)C3)cc2)c1` (stereo not shown) [1,029, 1-(cyclopentylmethyl)-3-(3′,5′-difluoro-[1,1′-biphenyl]-4-yl)piperidine], 500 to 1000 nM; with `Cc1cc(-c2ccc(Cl)cc2)ccc1C1CCCN(CC2CCCC2)C1` (stereo not shown) [1,039, 3-(4′-chloro-3-methyl-[1,1′-biphenyl]-4-yl)-1-(cyclopentylmethyl) piperidine], 500 to 1000 nM.
In the case of `Cc1cc(C2CCCN(C3CCCC3)C2)ccc1-c1ccc(Cl)cc1` (stereo not shown) [1,040, 3-(4′-chloro-2-methyl-[1,1′-biphenyl]-4-yl)-1-cyclopentylpiperidine], the EC50 at PCSK9 [2] is 500 to 1000 nM.
With `Fc1ccc(-c2ccc(C3CCCN(CC4CC4)C3)cc2)cc1` (stereo not shown) [Compound 1,001, 1-(cyclopropylmethyl)-3-(4′-fluoro-[1,1′-biphenyl]-4-yl)piperidine], the EC50 on PCSK9 [1] is 1 to 5 µM. In addition, the ΔSHG at PCSK9 [3] is listed as > 10%. Also, the half-life at 1 μM in series [4] is 25 min; in series [5], 10 min; in series [6], > 120 min.
With `c1ccc(-c2ccc(C3CCCN(CC4CCCC4)C3)cc2)cc1` (stereo not shown) [Compound 1,006, 3-([1,1′-biphenyl]-4-yl)-1-(cyclopentylmethyl)piperidine], the concentration for a half-maximal effect (EC50) on PCSK9 [1] is 1 to 5 µM; at PCSK9 [2], 500 to 1000 nM. Further, the half-life at 1 μM in series [4] is 28 min; in series [5], 13 min; in series [6] it was 22 min.
Take `Fc1ccc(-c2ccc(C3CCCN(CC4CCCC4)C3)cc2)cc1` (stereo not shown) [Compound 1,009, 1-(cyclopentylmethyl)-3-(4′-fluoro-[1,1′-biphenyl]-4-yl)piperidine]: the half-maximal effective concentration (EC50) at PCSK9 [1] is 1 to 5 µM; on PCSK9 [2], < 500 nM. In addition, the half-life at 1 μM in series [4] stood at 67 min; in series [5] it was 13 min; in series [6], 86 min.
Take `Clc1ccc(-c2ccc(C3CCCN(CC4CCCC4)C3)cc2)cc1` (stereo not shown) [Compound 1,010, 3-(4′-chloro-[1,1′-biphenyl]-4-yl)-1-(cyclopentylmethyl)piperidine]: the EC50 on PCSK9 [1] is > 5 µM; at PCSK9 [2], < 500 nM. Further, the half-life at 1 μM in series [4] is 76 min; in series [5], 15 min; in series [6], > 120 min.
In the same order, the values of `FC(F)(F)c1ccc(-c2ccc(C3CCCN(CC4CCCC4)C3)cc2)cc1` (stereo not shown) [Compound 1,011, 1-(cyclopentylmethyl)-3-(4′-(trifluoromethyl)-[1,1′-biphenyl]-4-yl)piperidine] are < 1 µM, < 500 nM, 61 min, 17 min and > 120 min.
For the molecule `Fc1ccc(-c2ccc(C3CCCN(Cc4ccccc4)C3)cc2)cc1` (stereo not shown) [Compound 1,035, 1-benzyl-3-(4′-fluoro-[1,1′-biphenyl]-4-yl)piperidine], the EC50 was > 5 µM at PCSK9 [1] and 500 to 1000 nM on PCSK9 [2].
